Laboratory results as given in ChEMBL document CHEMBL5634100, “Novel spiro[pyrrolidine-2,3'-quinoline]-2'-one derivatives containing piperazine fragment as potential chitin synthase inhibitors and antifungal agents: Design, synthesis and biological evaluation” (Eur J Med Chem, 2023).
Converted amounts (≈) assume the structure as drawn.

Legend:
Cryptococcus neoformans [1] = assay: Antimicrobial activity against Cryptococcus neoformans ATCC 32719 assessed as inhibition of cell wall synthesis in presence of sorbitol; format: functional
Aspergillus flavus [2] = assay: Antimicrobial activity against Fluconazole-resistant Aspergillus flavus ATCC 16870R incubated for 24 hrs by two fold serial dilution method; format: functional
Candida albicans [3] = assay: Antimicrobial activity against Candida albicans ATCC 76615 assessed as inhibition of cell wall synthesis in presence of sorbitol; format: functional
Aspergillus fumigatus [4] = assay: Antimicrobial activity against Aspergillus fumigatus GIMCC 3.19 incubated for 24 hrs in presence of fluconazole by checkerboard method; format: functional
Aspergillus flavus [5] = assay: Synergistic antimicrobial activity against Aspergillus flavus ATCC 16870 assessed as fractional inhibitory concentration index incubated for 24 hrs in presence of polyoxin B by checkerboard method; format: functional
Aspergillus flavus [6] = assay: Antimicrobial activity against Aspergillus flavus ATCC 16870 incubated for 24 hrs in presence of fluconazole by checkerboard method; format: functional
Candida albicans [7] = assay: Antimicrobial activity against Candida albicans ATCC 76615 incubated for 24 hrs in presence of polyoxin B by checkerboard method; format: functional
Candida albicans [8] = assay: Antimicrobial activity against Candida albicans ATCC 76615 incubated for 24 hrs by two fold serial dilution method; format: functional
[9] = Inhibition of Candida tropicalis ATCC 750 chitin synthase using UDP-GlcNAc as substrate by TMB based microplate analyzer
Candida albicans [10] = assay: Additive antimicrobial activity against Candida albicans ATCC 76615 assessed as fractional inhibitory concentration index incubated for 24 hrs in presence of fluconazole by checkerboard method; format: functional
Aspergillus flavus [11] = assay: Synergistic antimicrobial activity against Aspergillus flavus ATCC 16870 assessed as fractional inhibitory concentration index incubated for 24 hrs in presence of fluconazole by checkerboard method; format: functional
Cryptococcus neoformans [12] = assay: Antimicrobial activity against Cryptococcus neoformans ATCC 32719 incubated for 24 hrs in presence of fluconazole by checkerboard method; format: functional
Candida albicans [13] = assay: Antimicrobial activity against Candida albicans ATCC 76615 incubated for 24 hrs in presence of fluconazole by checkerboard method; format: functional
Cryptococcus neoformans [14] = assay: Antimicrobial activity against Cryptococcus neoformans ATCC 32719 incubated for 24 hrs in presence of polyoxin B by checkerboard method; format: functional
Aspergillus fumigatus [15] = assay: Synergistic antimicrobial activity against Aspergillus fumigatus GIMCC 3.19 assessed as fractional inhibitory concentration index incubated for 24 hrs in presence of fluconazole by checkerboard method; format: functional
Aspergillus flavus [16] = assay: Antimicrobial activity against Aspergillus flavus ATCC 16870 incubated for 24 hrs in presence of polyoxin B by checkerboard method; format: functional
Cryptococcus neoformans [17] = assay: Antimicrobial activity against Fluconazole-resistant Cryptococcus neoformans ATCC 32719R incubated for 24 hrs by two fold serial dilution method; format: functional
Aspergillus fumigatus [18] = assay: Synergistic antimicrobial activity against Aspergillus fumigatus GIMCC 3.19 assessed as fractional inhibitory concentration index incubated for 24 hrs in presence of polyoxin B by checkerboard method; format: functional
Cryptococcus neoformans [19] = assay: Antimicrobial activity against Cryptococcus neoformans ATCC 32719 incubated for 24 hrs by two fold serial dilution method; format: functional
Cryptococcus neoformans [20] = assay: Synergistic antimicrobial activity against Cryptococcus neoformans ATCC 32719 assessed as fractional inhibitory concentration index incubated for 24 hrs in presence of fluconazole by checkerboard method; format: functional
Aspergillus fumigatus [21] = assay: Antimicrobial activity against Aspergillus fumigatus GIMCC 3.19 incubated for 24 hrs by two fold serial dilution method; format: functional
Candida tropicalis = assay: Inhibition of Candida tropicalis ATCC 750 chitin synthase using UDP-GlcNAc as substrate at 300 ug/ml by TMB based microplate analyzer relative to control; details: dose 300.0 µg/ml
Aspergillus fumigatus [22] = assay: Antimicrobial activity against Fluconazole-resistant Aspergillus fumigatus GIMCC 3.19R incubated for 24 hrs by two fold serial dilution method; format: functional
Candida albicans [23] = assay: Additive antimicrobial activity against Candida albicans ATCC 76615 assessed as fractional inhibitory concentration index incubated for 24 hrs in presence of polyoxin B by checkerboard method; format: functional
Candida albicans [24] = assay: Antimicrobial activity against fluconazole-resistant Candida albicans ATCC 76615R incubated for 24 hrs by two fold serial dilution method; format: functional
Candida albicans [25] = assay: Antimicrobial activity against micafungin-resistant Candida albicans ATCC 76615R incubated for 24 hrs by two fold serial dilution method; format: functional
Cryptococcus neoformans [26] = assay: Synergistic antimicrobial activity against Cryptococcus neoformans ATCC 32719 assessed as fractional inhibitory concentration index incubated for 24 hrs in presence of polyoxin B by checkerboard method; format: functional
Aspergillus fumigatus [27] = assay: Antimicrobial activity against Aspergillus fumigatus GIMCC 3.19 incubated for 24 hrs in presence of polyoxin B by checkerboard method; format: functional
Aspergillus flavus [28] = assay: Antimicrobial activity against Aspergillus flavus ATCC 16870 assessed as inhibition of cell wall synthesis in presence of sorbitol; format: functional
Aspergillus fumigatus [29] = assay: Antimicrobial activity against Aspergillus fumigatus GIMCC 3.19 assessed as inhibition of cell wall synthesis in presence of sorbitol; format: functional
Aspergillus flavus [30] = assay: Antimicrobial activity against Aspergillus flavus ATCC 16870 incubated for 24 hrs by two fold serial dilution method; format: functional
Aspergillus fumigatus [31] = assay: Additive antimicrobial activity against Aspergillus fumigatus GIMCC 3.19 assessed as fractional inhibitory concentration index incubated for 24 hrs in presence of polyoxin B by checkerboard method; format: functional
Aspergillus flavus [32] = assay: Additive antimicrobial activity against Aspergillus flavus ATCC 16870 assessed as fractional inhibitory concentration index incubated for 24 hrs in presence of polyoxin B by checkerboard method; format: functional
Candida albicans [33] = assay: Synergistic antimicrobial activity against Candida albicans ATCC 76615 assessed as fractional inhibitory concentration index incubated for 24 hrs in presence of fluconazole by checkerboard method; format: functional
Aspergillus fumigatus [34] = assay: Additive antimicrobial activity against Aspergillus fumigatus GIMCC 3.19 assessed as fractional inhibitory concentration index incubated for 24 hrs in presence of fluconazole by checkerboard method; format: functional
Candida albicans [35] = assay: Synergistic antimicrobial activity against Candida albicans ATCC 76615 assessed as fractional inhibitory concentration index incubated for 24 hrs in presence of polyoxin B by checkerboard method; format: functional
Aspergillus flavus [36] = assay: Additive antimicrobial activity against Aspergillus flavus ATCC 16870 assessed as fractional inhibitory concentration index incubated for 24 hrs in presence of fluconazole by checkerboard method; format: functional
Cryptococcus neoformans [37] = assay: Additive antimicrobial activity against Cryptococcus neoformans ATCC 32719 assessed as fractional inhibitory concentration index incubated for 24 hrs in presence of polyoxin B by checkerboard method; format: functional
Cryptococcus neoformans [38] = assay: Additive antimicrobial activity against Cryptococcus neoformans ATCC 32719 assessed as fractional inhibitory concentration index incubated for 24 hrs in presence of fluconazole by checkerboard method; format: functional

| Structure (SMILES) | MIC (Cryptococcus neoformans [1]) [µg/mL] | MIC (Aspergillus flavus [2]) [µg/mL] | MIC (Candida albicans [3]) [µg/mL] | MIC (Aspergillus fumigatus [4]) [µg/mL] | MIC (Aspergillus flavus [6]) [µg/mL] | MIC (Candida albicans [7]) [µg/mL] | MIC (Candida albicans [8]) [µg/mL] | IC50 [9] [µM] | MIC (Cryptococcus neoformans [12]) [µg/mL] | MIC (Candida albicans [13]) [µg/mL] | MIC (Cryptococcus neoformans [14]) [µg/mL] | MIC (Aspergillus flavus [16]) [µg/mL] | MIC (Cryptococcus neoformans [17]) [µg/mL] | MIC (Cryptococcus neoformans [19]) [µg/mL] | MIC (Aspergillus fumigatus [21]) [µg/mL] | inhibition (Candida tropicalis) [%] | MIC (Aspergillus fumigatus [22]) [µg/mL] | MIC (Candida albicans [24]) [µg/mL] | MIC (Candida albicans [25]) [µg/mL] | MIC (Aspergillus fumigatus [27]) [µg/mL] | further results |
| --- | --- | --- | --- | --- | --- | --- | --- | --- | --- | --- | --- | --- | --- | --- | --- | --- | --- | --- | --- | --- | --- |
| O=C(c1ccc([N+](=O)[O-])cc1)N1CCN(CC(=O)N2CCCC23Cc2ccccc2NC3=O)CC1 (stereo not drawn) | 64 | 128 (≈ 268 µM) | 64 | 2 | 2 | 1 | 2 (≈ 4.19 µM) | 110 | 2 | 0.5 | 4 | 1 | 64 (≈ 134 µM) | 2 (≈ 4.19 µM) | 1 (≈ 2.09 µM) | 80.2 | 64 (≈ 134 µM) | 32 (≈ 67 µM) | 128 (≈ 268 µM) | 4 | fractional inhibitory concentration index (FICI) (Aspergillus flavus [5]): 0.375; fractional inhibitory concentration index (FICI) (Candida albicans [10]): 1.125; fractional inhibitory concentration index (FICI) (Aspergillus flavus [11]): 0.75; fractional inhibitory concentration index (FICI) (Aspergillus fumigatus [15]): 1; fractional inhibitory concentration index (FICI) (Aspergillus fumigatus [18]): 0.75; fractional inhibitory concentration index (FICI) (Cryptococcus neoformans [20]): 0.75; fractional inhibitory concentration index (FICI) (Candida albicans [23]): 1.125; fractional inhibitory concentration index (FICI) (Cryptococcus neoformans [26]): 0.5; MIC (Aspergillus flavus [28]): 32 µg/mL; MIC (Aspergillus fumigatus [29]): 64 µg/mL; MIC (Aspergillus flavus [30]): 2 µg/mL (≈ 4.19 µM) |
| O=C(c1cc([N+](=O)[O-])ccc1Cl)N1CCN(CC(=O)N2CCCC23Cc2ccccc2NC3=O)CC1 (stereo not drawn) | 256 | 32 (≈ 62.5 µM) | 32 | 1 | 4 | 2 | 1 (≈ 1.95 µM) | 100 | 4 | 2 | 4 | 1 | 128 (≈ 250 µM) | 4 (≈ 7.81 µM) | 4 (≈ 7.81 µM) | 82.9 | 32 (≈ 62.5 µM) | 32 (≈ 62.5 µM) | 32 (≈ 62.5 µM) | 2 | fractional inhibitory concentration index (FICI) (Aspergillus fumigatus [31]): 1.25; fractional inhibitory concentration index (FICI) (Aspergillus flavus [32]): 1.125; fractional inhibitory concentration index (FICI) (Candida albicans [33]): 1; fractional inhibitory concentration index (FICI) (Aspergillus flavus [11]): 0.75; fractional inhibitory concentration index (FICI) (Cryptococcus neoformans [20]): 0.625; fractional inhibitory concentration index (FICI) (Aspergillus fumigatus [34]): 1.25; fractional inhibitory concentration index (FICI) (Candida albicans [35]): 0.75; fractional inhibitory concentration index (FICI) (Cryptococcus neoformans [26]): 0.5; MIC (Aspergillus flavus [28]): 64 µg/mL; MIC (Aspergillus fumigatus [29]): 128 µg/mL; MIC (Aspergillus flavus [30]): 1 µg/mL (≈ 1.95 µM) |
| O=C(c1cccc(F)c1)N1CCN(CC(=O)N2CCCC23Cc2ccccc2NC3=O)CC1 (stereo not drawn) | 64 | 32 (≈ 71 µM) | 64 | 1 | 2 | 0.5 | 1 (≈ 2.22 µM) | 140 | 2 | 1 | 2 | 2 | 32 (≈ 71 µM) | 8 (≈ 17.8 µM) | 1 (≈ 2.22 µM) | 76.8 | 32 (≈ 71 µM) | 32 (≈ 71 µM) | 128 (≈ 284 µM) | 4 | fractional inhibitory concentration index (FICI) (Aspergillus flavus [36]): 1.25; fractional inhibitory concentration index (FICI) (Aspergillus flavus [32]): 1.25; fractional inhibitory concentration index (FICI) (Candida albicans [33]): 0.75; fractional inhibitory concentration index (FICI) (Aspergillus fumigatus [15]): 0.5; fractional inhibitory concentration index (FICI) (Aspergillus fumigatus [18]): 0.625; fractional inhibitory concentration index (FICI) (Cryptococcus neoformans [37]): 1.125; fractional inhibitory concentration index (FICI) (Candida albicans [23]): 1.063; fractional inhibitory concentration index (FICI) (Cryptococcus neoformans [38]): 1.25; MIC (Aspergillus flavus [28]): 64 µg/mL; MIC (Aspergillus fumigatus [29]): 128 µg/mL; MIC (Aspergillus flavus [30]): 4 µg/mL (≈ 8.88 µM) |
